In US20240269238A1, “Therapeutic Regimens and Methods for Reducing Body Weight in a Subject with Fatty Liver Disease using a GLP-1R and GCGR Agonist” (Spitfire Pharma LLC, priority 2022, published 2024):

How the values were obtained:
[1] = Phase 1b 24-week NAFLD study (Example 3): safety; format: in vivo, human; details: for serious and severe AE observed: unrelated to study medication
From the text: Provided herein is disclosure of a 12-week extension study of the study provided in Example 1, providing a 24-week a Phase 1b, randomized, double-blind, placebo-controlled study to assess the effects of pemvidutide (also termed herein as ALT-801), the safety of pemvidutide and effects on weight loss, hepatic fat fraction, anthropometric parameters, lipid metabolism, as well as inflammatory, fibrosis and other markers in diabetic and non-diabetic (type 2 diabetes) overweight and obese (BMI≥28.0 kg/m^2) subjects with NAFLD (defined as liver fat content (LFC) by MRI-PDFF ≥10%; absence of significant fibrosis, defined as FibroScan® LSM ≤10 kPa), alanine aminotransferase (ALT) and aspartate aminotransferase (AST) laboratory values of ≤75 IU/L and HbA1c <9.5. Men and women aged 18-65 years were studied. Diabetic subjects were defined as those that have undergone stable dose (≥3 months) metformin or SLGT-2 therapy and no use of insulin, sulfonylureas, DPP-4, GLP-1 treatment; Ninety-four (94) subjects were enrolled in the initial 12-week Phase 1b NAFLD trial and 83 subjects who completed were invited to receive a total of 12 additional weeks of blinded treatment. Of those subjects, 66 consented to rollover, of which 64 were eligible to participate.
The primary endpoint of this study was a reduction in liver fat content (LFC) by MRI-PDFF at Week 24 compared to Week 0 (zero). Key secondary endpoints include percent (%) weight loss at Week 24 compared to Week 0 (zero), and liver inflammation by alanine aminotransferase (ALT) levels and corrected T1 (cT1) imaging at Week 24 as compared to Week 0 (zero). Adverse events (AEs), including serious and severe AEs, AEs leading to discontinuation, GI tolerability, vital signs, and glycemic control including fasting glucose and HbA1c levels were also measured.

[2] = Phase II 24-week interim analysis in non-diabetic obese and overweight subjects (NCT05295875, Example 4); format: in vivo, human
From the text: Results presented in this example correspond to a 24-week interim analysis obtained from a placebo-controlled phase II study (ClinicalTrials.gov Identifier: NCT05295875) evaluating pemvidutide (ALT-801) in obese and overweight subjects. It is estimated that 70 to 75% subjects of this population have NAFLD while 34% may have NASH (Quek J. et al. Global prevalence of non-alcoholic fatty liver disease and non-alcoholic steatohepatitis in the overweight and obese population: a systematic review and meta-analysis. Lancet Gastroenterol Hepatol. 2023 January; 8(1):20-30). Key eligibility criteria were: (1) Men and women, ages 18-75 years; (2) at least one unsuccessful weight loss attempt per Investigator judgement; (3) Body Mass Index (BMI) ≥30 kg/m2 or BMI ≥27 kg/m2 with at least one obesity-related comorbidity (history of cardiovascular disease, hypertension, dyslipidemia, pre-diabetes or obstructive sleep apnea) and (4) non-diabetes (HbA1c ≤6.5% and fasting glucose ≤125 mg/dL). Eligible subjects were randomized 1:1:1:1 to one of the following treatment arms: Group 1 (39 subjects): pemvidutide 1.2 mg SC once weekly for 24 weeks; Group 2 (40 subjects): pemvidutide 1.8 mg administered subcutaneously once weekly for 24 weeks; Group 3 (40 subjects): pemvidutide 0.6 mg administered subcutaneously for 1 week, 1.2 mg administered subcutaneously for 1 week, 1.8 mg administered subcutaneously once weekly for 2 weeks, followed by 2.4 mg administered subcutaneously once weekly for 20 additional weeks (in sequence) and Group 4 (41 subjects): Placebo administered subcutaneously once weekly for 24 weeks. The randomization of subjects was stratified based on sex and baseline body mass index (BMI <35 kg/m2 vs. ≥35 kg/m2). A minimum of 25% of randomized subjects were male. All subjects received counselling on a reduced-calorie diet of 1200-1500 calories for individuals <250 lbs (113.6 kg) and 1500-1800 calories for individuals ≥250 lbs (113.6 kg) and a gradual increase in physical activity (targeting 150 min of physical activity per week) by a qualified healthcare professional at screening and at subsequent visits during the treatment period. Subjects were instructed to record their food intake and physical activity daily, and compliance with lifestyle interventions will be assessed by the investigator on a regular basis. A subgroup of subjects were subjected MRI-PDFF to evaluate the hepatic fat fraction in as well as composition to measure total body adipose tissue (AT) and adipose tissue-free mass (ATFM).
FIG. 27 presents the mean percentage weight loss over time in all evaluated subjects across the three pemvidutide doses and placebo over 24 weeks. Results are presented as efficacy estimand that assumes subjects remained on treatment for the entire duration, with missing values handled by Mixed Models for Repeated Measures. […] FIG. 28 presents the mean percentage weight loss (presented as efficacy estimand as described above) that was achieved over 24 weeks with pemvidutide and placebo in a subgroup of subjects with baseline body weight ≤115 kg. […] This phenomenon may relate to a lower level of drug exposure in subjects with higher body weight, and would support the possibility to increase dose levels in this population to maximize efficacy. FIG. 29 presents a weight loss responder analysis based on calculation of percentage of subjects who respectively achieve ≥5%, ≥10% and ≥15% weight loss across the three pemvidutide doses and placebo. FIG. 30 presents the percentage weight loss achieved across the four groups comparing Hispanic versus non-Hispanic subjects. […] Waist circumference is an index of central or abdominal obesity recommended by the WHO to assess the risk of metabolic diseases such as NAFLD and NASH and cardiovascular diseases.

SMILES: CC[C@H](C)[C@H](NC(=O)[C@H](Cc1ccccc1)NC(=O)[C@H](CCC(=O)O)NC(=O)[C@@H]1CCCCNC(=O)CC[C@H](NC(=O)[C@H](CC(=O)O)NC(=O)[C@H](CC(C)C)NC(=O)[C@H](Cc2ccc(O)cc2)NC(=O)[C@H](CCCCN)NC(=O)[C@H](CO)NC(=O)[C@H](Cc2ccc(O)cc2)NC(=O)[C@H](CC(=O)O)NC(=O)[C@H](CO)NC(=O)[C@@H](NC(=O)[C@H](Cc2ccccc2)NC(=O)[C@@H](NC(=O)CNC(=O)[C@H](CCC(N)=O)NC(=O)C(C)(C)NC(=O)[C@@H](N)Cc2c[nH]cn2)[C@@H](C)O)[C@H](C)O)C(=O)N[C@@H](CCCCNC(=O)C2O[C@@H](OCCCCCCCCCCCCCCCCCC(=O)O)C(O)C(O)[C@@H]2O)C(=O)N[C@@H](C)C(=O)N[C@@H](C)C(=O)N1)C(=O)N[C@@H](CCC(N)=O)C(=O)N[C@@H](Cc1c[nH]c2ccccc12)C(=O)N[C@@H](CC(C)C)C(=O)N[C@@H](CC(C)C)C(=O)N[C@@H](CCC(N)=O)C(=O)N[C@H](C(N)=O)[C@@H](C)O (some centres unmarked) [ALT-801, Pemvidutide]
- serious and severe AE observed ([1]; 1.2 mg): Salmonella infection
- serious and severe AE observed ([1]; 1.8 mg): hypertension >3 weeks post last dose of study medication
- number of adverse events leading to treatment discontinuation ([1]; 24 weeks): low across the treatment group
- overall safety and tolerability ([1]; 24 weeks): safe and tolerable
- severity of gastrointestinal-related adverse events (nausea, vomiting, diarrhea, constipation) ([1]; 24 weeks): mild to moderate
- significant ALT elevations ([1]; 24 weeks): No significant ALT elevations were reported
- number of serious or severe adverse events ([1]; treatment groups, 24 weeks): low and comparable to the placebo group
- heart rate ([2]; 1.2, 1.8, 2.4 mg, 24-week treatment): do not induce a significant change in heart rates
- systolic and diastolic blood pressure ([2]; 24-week treatment): improves both systolic and diastolic blood pressures in a dose dependent manner
- weight loss, Hispanic versus non-Hispanic subjects ([2]; 24 weeks): tend to lose less body weight
- serum lipids ([2]; all doses, week 24): decreased as compared to baseline
- waist circumference ([2]; all doses, week 24): significant reduction in waist circumference
- mean percentage weight loss over time ([2]; all evaluated subjects, 1.2, 1.8, 2.4 mg, 24 weeks): progressive, dose-dependent weight loss
- weight loss in subgroup vs all subjects ([2]; baseline body weight <=115 kg, 24 weeks): higher levels of weight loss
